# Results published in ChEMBL document CHEMBL4354854, “DNA-Encoded Library Technology-Based Discovery, Lead Optimization, and Prodrug Strategy toward Structurally Unique Indoleamine 2,3-Dioxygenase-1 (IDO1) Inhibitors” (J Med Chem, 2020).
# The source made the active and inactive calls. The calls are words filed in the database; no cut-off is given here.
# Experiments:
# [1] = target: T1, Indoleamine 2,3-dioxygenase 1 (Homo sapiens, UniProt P14902); test: Binding affinity to IDO1 holoenzyme (unknown origin) assessed as red shift in soret band at 10 uM measured after 2 hrs by UV-vis spectra analysis
# Target sequence in this assay (P14902 whole entry, looked up): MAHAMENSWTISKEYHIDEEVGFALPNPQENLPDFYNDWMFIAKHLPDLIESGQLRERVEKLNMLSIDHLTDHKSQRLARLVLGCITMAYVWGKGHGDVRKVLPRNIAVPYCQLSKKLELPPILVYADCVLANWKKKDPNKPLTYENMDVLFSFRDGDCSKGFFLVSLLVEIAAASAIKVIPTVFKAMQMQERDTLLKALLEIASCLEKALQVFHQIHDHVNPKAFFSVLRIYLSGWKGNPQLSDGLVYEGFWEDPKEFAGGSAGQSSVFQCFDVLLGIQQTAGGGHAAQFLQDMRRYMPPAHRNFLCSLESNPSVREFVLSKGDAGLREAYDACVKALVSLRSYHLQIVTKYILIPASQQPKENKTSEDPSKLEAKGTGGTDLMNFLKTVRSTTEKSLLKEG
# [2] = Cytotoxicity against human PBMC cells assessed as reduction in cell viability measured after 48 hrs by Celltiter-glo luminescence assay; assay type: cell-based
# [3] = target: T1, Indoleamine 2,3-dioxygenase 1
# Target sequence in this assay (P14902 whole entry): as the sequence (P14902 whole entry, looked up) above
# Description: Inhibition of IDO1 in IFN-gamma/LPS stimulated human PBMC assessed as reduction in kynurenine production after 48 hrs by RapidFire MS assay
# [4] = Clearance in mouse; assay type: ADME, organism-based; conditions: in vivo
# [5] = Solubility of the compound in fasted state simulated intestinal fluid using amorphous compound; assay type: physicochemical
# [6] = Oral bioavailability in Han Wistar rat assessed as (S)-Ethyl 6-Bromo-4-(1H-indazole-7-carboxamido)spiro-[chroman-2,4'-piperidine]-1'-carboxylate level at 4 mg/kg equiv of parent compound administered via gavage using amorphous compound by LC-MS/MS analysis; assay type: ADME, organism-based; conditions: in vivo
# [7] = Oral bioavailability in Han Wistar rat assessed as (S)-Ethyl 6-Bromo-4-(1H-indazole-7-carboxamido)spiro-[chroman-2,4'-piperidine]-1'-carboxylate level at 25 mg/kg equiv of parent compound administered via gavage using amorphous compound by LC-MS/MS analysis; assay type: ADME, organism-based; conditions: in vivo
# [8] = Oral bioavailability in Han Wistar rat assessed as (S)-Ethyl 6-Bromo-4-(1H-indazole-7-carboxamido)spiro-[chroman-2,4'-piperidine]-1'-carboxylate level at 82 mg/kg equiv of parent compound administered via gavage using amorphous compound by LC-MS/MS analysis; assay type: ADME, organism-based; conditions: in vivo
# [9] = Clearance in mouse relative to hepatic blood flow; assay type: ADME; conditions: in vivo
# [10] = Clearance in rat; assay type: ADME; conditions: in vivo
# [11] = Clearance in rat relative to hepatic blood flow; assay type: ADME; conditions: in vivo
# [12] = Clearance in monkey; assay type: ADME, Macaca mulatta; conditions: rhesus monkey, in vivo
# [13] = Clearance in monkey relative to hepatic blood flow; assay type: ADME, Macaca mulatta; conditions: rhesus monkey, in vivo
# [14] = Solubility of the compound in fasted state simulated intestinal fluid using crystalline compound; assay type: physicochemical
# [15] = Oral bioavailability in Han Wistar rat at 5 mg/kg administered via gavage using crystalline compound by LC-MS/MS analysis; assay type: ADME, organism-based; conditions: in vivo
# [16] = Oral bioavailability in Han Wistar rat at 30 mg/kg administered via gavage using crystalline compound by LC-MS/MS analysis; assay type: ADME, organism-based; conditions: in vivo
# [17] = Oral bioavailability in Han Wistar rat at 100 mg/kg administered via gavage using crystalline compound by LC-MS/MS analysis; assay type: ADME, organism-based; conditions: in vivo
# [18] = Oral bioavailability in Beagle dog at 5 mg/kg administered via gavage using crystalline compound by LC-MS/MS analysis; assay type: ADME, organism-based, Canis lupus familiaris; conditions: in vivo
# [19] = Oral bioavailability in Beagle dog at 30 mg/kg administered via gavage using crystalline compound by LC-MS/MS analysis; assay type: ADME, organism-based, Canis lupus familiaris; conditions: in vivo
# [20] = AUC (0 to t) in Beagle dog at 30 mg/kg, po administered via gavage using crystalline compound by LC-MS/MS analysis; assay type: ADME, organism-based, Canis lupus familiaris; conditions: in vivo
# [21] = Oral bioavailability in CD-1 mouse assessed as (S)-Ethyl 6-Bromo-4-(1H-indazole-7-carboxamido)spiro-[chroman-2,4'-piperidine]-1'-carboxylate level at 3 mg/kg equiv of parent compound administered via gavage using crystalline compound by LC-MS/MS analysis; assay type: ADME, organism-based; conditions: in vivo
# [22] = Oral bioavailability in CD-1 mouse assessed as (S)-Ethyl 6-Bromo-4-(1H-indazole-7-carboxamido)spiro-[chroman-2,4'-piperidine]-1'-carboxylate level at 30 mg/kg equiv of parent compound administered via gavage using crystalline compound by LC-MS/MS analysis; assay type: ADME, organism-based; conditions: in vivo
# [23] = Oral bioavailability in CD-1 mouse assessed as (S)-Ethyl 6-Bromo-4-(1H-indazole-7-carboxamido)spiro-[chroman-2,4'-piperidine]-1'-carboxylate level at 89 mg/kg equiv of parent compound administered via gavage using crystalline compound by LC-MS/MS analysis; assay type: ADME, organism-based; conditions: in vivo
# [24] = Oral bioavailability in CD-1 mouse assessed as (S)-Ethyl 6-Bromo-4-(1H-indazole-7-carboxamido)spiro-[chroman-2,4'-piperidine]-1'-carboxylate level at 267 mg/kg equiv of parent compound administered via gavage using crystalline compound by LC-MS/MS analysis; assay type: ADME, organism-based; conditions: in vivo
# [25] = Oral bioavailability in Beagle dog assessed as (S)-Ethyl 6-Bromo-4-(1H-indazole-7-carboxamido)spiro-[chroman-2,4'-piperidine]-1'-carboxylate level at 3 mg/kg equiv of parent compound administered via gavage using crystalline compound by LC-MS/MS analysis; assay type: ADME, organism-based, Canis lupus familiaris; conditions: in vivo
# [26] = Oral bioavailability in Beagle dog assessed as (S)-Ethyl 6-Bromo-4-(1H-indazole-7-carboxamido)spiro-[chroman-2,4'-piperidine]-1'-carboxylate level at 30 mg/kg equiv of parent compound administered via gavage using crystalline compound by LC-MS/MS analysis; assay type: ADME, organism-based, Canis lupus familiaris; conditions: in vivo
# [27] = Oral bioavailability in Beagle dog assessed as (S)-Ethyl 6-Bromo-4-(1H-indazole-7-carboxamido)spiro-[chroman-2,4'-piperidine]-1'-carboxylate level at 89 mg/kg equiv of parent compound administered via gavage using crystalline compound by LC-MS/MS analysis; assay type: ADME, organism-based, Canis lupus familiaris; conditions: in vivo
# [28] = AUC (0 to t) in Beagle dog assessed as (S)-Ethyl 6-Bromo-4-(1H-indazole-7-carboxamido)spiro-[chroman-2,4'-piperidine]-1'-carboxylate level at 30 mg/kg equiv of parent compound administered via oral gavage using crystalline compound by LC-MS/MS analysis; assay type: ADME, organism-based, Canis lupus familiaris; conditions: in vivo
# Homo sapiens = test: In vivo inhibition of IDO1 in human at 60 mg, po bid measured after 24 hrs relative to control; assay type: functional
# [29] = Mutagenicity in Salmonella typhimurium in presence of S9 fraction by Ames test; conditions: salmonella enterica subsp. enterica serovar typhimurium
# [30] = Mutagenicity in Salmonella typhimurium in absence of S9 fraction by Ames test; assay type: toxicity; conditions: salmonella enterica subsp. enterica serovar typhimurium
smiles,measurement,setting,value
NS(=O)(=O)NCCNc1nonc1/C(=N/O)Nc1ccc(F)c(Br)c1,Activity,[1],inactive
CCCOC(=O)N1CCC2(CC1)C[C@H](NC(=O)c1cccc3cn[nH]c13)c1cc(Br)ccc1O2,CC50 at 48 h,[2],> 10 µM
CCOC(=O)N1CCC2(CC1)C[C@H](NC(=O)c1cccc3cn[nH]c13)c1cc(C(=O)OC)ccc1O2,CC50 at 48 h,[2],> 10 µM
COC(=O)N1CCC2(CC1)C[C@H](NC(=O)c1cccc3cn[nH]c13)c1cc(Br)ccc1O2,CC50 at 48 h,[2],6.31 µM
same,IC50,[3],0.0043 µM
CCOC(=O)N1CCC2(CC1)C[C@H](NC(=O)c1cccc3[nH]ncc13)c1cc(Br)ccc1O2,CC50 at 48 h,[2],> 10 µM
CCOC(=O)N1CCC2(CC1)C[C@H](NC(=O)c1cccc3ocnc13)c1cc(Br)ccc1O2,CC50 at 48 h,[2],> 10 µM
CCOC(=O)N1CCC2(CC1)CC(NC(=O)c1cccc3cn[nH]c13)c1ccccc1O2 (racemic),CC50 at 48 h,[2],> 10 µM
CCOC(=O)N1CCC2(CC1)C[C@H](NC(=O)c1cccc3cn[nH]c13)c1cc(C(=O)O)ccc1O2,CC50 at 48 h,[2],> 10 µM
CC(C)(C)OC(=O)N1CCC2(CC1)CC(NC(=O)c1cccc3cc[nH]c13)c1ccccc1O2 (racemic),CC50 at 48 h,[2],5.01 µM
same,clearance,[4],3.3 L/h/kg
CCOC(=O)N1CCC2(CC1)C[C@H](NC(=O)c1cccc3c1NC(=O)C3=O)c1cc(Br)ccc1O2,CC50 at 48 h,[2],> 10 µM
CCOC(=O)N1CCC2(CC1)C[C@H](NC(=O)c1ccccc1O)c1cc(Br)ccc1O2,CC50 at 48 h,[2],> 10 µM
CCOC(=O)N1CCC2(CC1)C[C@H](NC(=O)c1cccc3cn[nH]c13)c1cc(CC)ccc1O2,CC50 at 48 h,[2],> 10 µM
CCOC(=O)N1CCC2(CC1)C[C@H](NC(=O)c1cccc3c1NC(=O)CO3)c1cc(Br)ccc1O2,CC50 at 48 h,[2],> 10 µM
CCOC(=O)N1CCC2(CC1)CC(NC(=O)c1cccc3cc[nH]c13)c1ccccc1O2 (racemic),CC50 at 48 h,[2],> 10 µM
CCOC(=O)N1CCC2(CC1)C[C@H](NC(=O)c1cccc3c1OCO3)c1cc(Br)ccc1O2,CC50 at 48 h,[2],> 10 µM
CCOC(=O)N1CCC2(CC1)C[C@H](NC(=O)c1cccc3cn[nH]c13)c1nc(OC)ccc1O2,CC50 at 48 h,[2],> 10 µM
same,IC50,[3],0.0064 µM
CCOC(=O)N1CCC2(CC1)C[C@H](NC(=O)c1cccc3nn[nH]c13)c1cc(Br)ccc1O2,CC50 at 48 h,[2],> 10 µM
CC(C)(C)OC(=O)N1CCC2(CC1)C[C@H](NC(=O)c1cccc3cn[nH]c13)c1cc(Br)ccc1O2,CC50 at 48 h,[2],> 10 µM
CCOC(=O)N1CCC2(CC1)C[C@H](NC(=O)c1cccc3nc[nH]c13)c1cc(Br)ccc1O2,CC50 at 48 h,[2],> 10 µM
CCOC(=O)N1CCC2(CC1)C[C@H](NC(=O)c1cccc3cn[nH]c13)c1cc(C#N)ccc1O2,CC50 at 48 h,[2],> 10 µM
CCOC(=O)N1CCC2(CC1)C[C@@H](NC(=O)c1cccc3cn[nH]c13)c1ccccc1O2,CC50 at 48 h,[2],> 10 µM
CCOC(=O)N1CCC2(CC1)C[C@H](NC(=O)c1cccc3[nH]c(=O)[nH]c13)c1cc(Br)ccc1O2,CC50 at 48 h,[2],> 10 µM
CCOC(=O)N1CCC2(CC1)C[C@H](NC(=O)c1cccc3cn[nH]c13)c1cc(Br)ncc1O2,CC50 at 48 h,[2],> 10 µM
same,IC50,[3],0.021 µM
CC(C)OC(=O)N1CCC2(CC1)C[C@H](NC(=O)c1cccc3cn[nH]c13)c1cc(Br)ccc1O2,CC50 at 48 h,[2],> 10 µM
CCOC(=O)N1CCC2(CC1)C[C@H](NC(=O)c1cccc3cn(COP(=O)(O)O)nc13)c1cc(Br)ccc1O2,solubility,[5],> 1 mg/mL
same,F,[6],65%
same,F,[7],95%
same,F,[8],91%
CCOC(=O)N1CCC2(CC1)C[C@H](NC(=O)c1cccc3c1NC(=O)C3)c1cc(Br)ccc1O2,CC50 at 48 h,[2],> 10 µM
CC(C)CN(CC(C)C)c1ccc([C@H](C)CC(=O)O)cc1Nc1nc(C(F)(F)F)ns1,Activity,[1],inactive
CCOC(=O)N1CCC2(CC1)C[C@H](NC(=O)c1cccc3cn[nH]c13)c1cc(Br)ccc1O2,CC50 at 48 h,[2],> 10 µM
same,clearance,[4],0.6 L/h/kg
same,CL,[9],8%
same,clearance,[10],0.702 L/h/kg
same,CL,[11],15%
same,clearance,[12],0.366 L/h/kg
same,CL,[13],14%
same,solubility thermodynamic,[14],0.0184 mg/mL
same,bioavailability,[15],11%
same,bioavailability,[16],6%
same,bioavailability,[17],3%
same,bioavailability,[18],7%
same,bioavailability,[19],0.2%
same,AUC(0-t),[20],0.0447 µg·h/mL
CCOC(=O)N1CCC2(CC1)C[C@H](NC(=O)c1cccc3cn[nH]c13)c1cc(OC)ccc1O2,CC50 at 48 h,[2],> 10 µM
CCOC(=O)N1CCC2(CC1)C[C@H](NC(=O)c1ccccc1OC)c1cc(Br)ccc1O2,CC50 at 48 h,[2],> 10 µM
CCOC(=O)N1CCC2(CC1)C[C@H](NC(=O)c1cccc3cc[nH]c13)c1cc(Br)ccc1O2,CC50 at 48 h,[2],> 10 µM
CCOC(=O)N1CCC2(CC1)C[C@H](NC(=O)c1cccc3cn[nH]c13)c1ccccc1O2,CC50 at 48 h,[2],> 10 µM
CCOC(=O)N1CCC2(CC1)C[C@H](NC(=O)c1cccc3cn(COP(=O)(O)O)nc13)c1cc(Br)ccc1O2.NC(CO)(CO)CO.NC(CO)(CO)CO,solubility thermodynamic,[14],> 1 mg/mL
same,F,[21],33%
same,F,[22],24%
same,F,[23],31%
same,F,[24],45%
same,F,[25],37%
same,F,[26],32%
same,F,[27],21%
same,AUCt,[28],8.606 µg·h/mL
same,inhibition (INH),Homo sapiens,90%
same,Activity,[29],Non-Toxic
same,Activity,[30],Non-Toxic
CCOC(=O)N1CCC2(CC1)C[C@H](NC(=O)c1ccccc1NC(=O)C(F)(F)F)c1cc(Br)ccc1O2,CC50 at 48 h,[2],> 10 µM
